“Also recorded” adds a separate entry of the source.
Experiments:
β-catenin in DLD1 cells [1] = test: β-catenin nucleus translocation, DLD1 cells; assay type: cell-based, human; conditions: Annexin A1 knocked down by siRNA
Method: (§1) An aliquot of 1×10^3-1×10^5 cells were seeded into Nunc Lab-Tek II Chamber Slide System (Thermo Fisher Scientific) in 400 μl and allowed to grow for 2-5 days till reaching desired confluency. Following washes with DMEM, the cells were incubated with CFSE-labeled Fn or Alexa Fluor™488-conjugated FadAc, mFadA, and BSA (300 μg/ml) for indicated time periods. Following washes of ten times with DMEM, the cells were fixed in PBS containing 4% paraformaldehyde at room temperature for 15 minutes, followed by neutralization in PBS containing 1% glycine at room temperature for 15 minutes. After blocking with PBS containing 2% skim milk and 0.3% Triton X-100 for 1 hour at 4° C., the cells were incubated overnight at 4° C. with goat anti-human E-cadherin polyclonal antibodies (1:400 dilution, R&D Systems, MN) and rabbit anti-AnnexinA1 polyclonal antibodies (1:400 dilution, Invitrogen) or rabbit anti-β-catenin polyclonal IgG (1:400 dilution, Invitrogen) in blocking solution. After washing three times with PBS containing 0.3% Triton X-100, the cells were incubated with Cy3-conjugated donkey anti-goat IgG (1:1000 dilution, Jackson ImmunoResearch, West Grove, Pa.) and Alexa Fluor®680-conjugated donkey anti-rabbit IgG (1:1000 dilution, Invitrogen), washed, and covered in mounting medium containing DAPI (Vector Laboratories, CA, USA). […]

AA/C1/SB (SB) cells = test: Cell proliferation assay, non-tumorigenic SB cells; assay type: cell-based, human; conditions: cells transfected with siRNA; compared to untreated cells; no Fn
Method: (§2) Full length ANXA1 was amplified by PCR using primers listed in Table 1 and cloned in to pcDNA™3.1 (+) Mammalian Expression Vector. Plasmid transfection was performed using lipofectamine 2000 (Invitrogen, CA) following the manufacturer instructions. Control siRNA, ANXA1-specific siRNA and CDH1-specific siRNA were purchased from Invitrogen (CA). The siRNA utilized in these experiments included: Negative control: Invitrogen Stealth RNAi siRNA negative control cat number 12935300; Annexin siRNA: Invitrogen stealth siRNA (cat # ANXA1HSS100502) sequence UAACCAUUAUGGCCUUAUGCAAGGC (SEQ ID NO: 1); and E-cadherin siRNA: Invitrogen stealth siRNA (cat # CDH1HSS101669) sequence UUAAUCUCCAGCCAGUUGGCAGUGU (SEQ ID NO: 2). Lipofectamine RNAi MAX (Invitrogen, CA) was used for the siRNA transfection following manufacturer instructions.
(§3) Cells were seeded in 24 well plates at 5×10^4 cells per well. Cells were untreated or incubated with bacteria at an MOI of 1000:1. Cell numbers were counted at indicated time points using a hemocytometer as previously described (Rubinstein et al. 2013). Each experiment was performed in triplicate and repeated at least three times.

RKO cells = test: Cell proliferation assay, RKO cells; assay type: cell-based, human; conditions: cells transfected with siRNA; RKO expressed the least Annexin A1
Method: as §2, §3

HT29 cells = test: Cell proliferation assay, HT29 cells; assay type: cell-based, human; conditions: cells transfected with siRNA; compared to untreated cells; no Fn
Method: as §2, §3

HCT116 cells [2] = test: Tumor xenograft of siRNA-treated HCT116 cells in nude mice; assay type: in vivo; conditions: HCT116 cells treated with siRNA, injected subcutaneously and bilaterally; vs control siRNA; 7 days post injection
Method: FIG. 1H are graphs and images of xenografted tumor growth in nude mice following subcutaneous and bilateral inoculation of HCT116 cells transfected with control siRNA (left side) or ANXA1-specific siRNA (right side). The tumor volumes were measured after 7 days post injection (left panel, n=4). For each mouse, the tumor resulting from ANXA1 siRNA-treated cells was normalized to that arising from control siRNA-treated cells which was designated to 100%. The line represents the average. *p<0.05 (unpaired t-test). Representative tumors are shown on the right panel top, tumors arising from control siRNA treated cells; bottom, tumors arising from ANXA1-specific siRNA treated cells.
Four-week old nude mice were purchased from Taconic Biosciences (NY, USA). An inoculum of 1×10^7 HCT 116 cells treated with either control or ANXA1-specific siRNA were injected subcutaneously and bilaterally into the nude mice, with control cells injected on the left side and ANXA1-knockdown cells on the right side. On day 7-9 post-injection, the tumor length and width were measured using calipers and tumor volumes were calculated using the following formula: Volume=(width)^2×length/2.

DLD1 cells = test: Cell proliferation assay, DLD1 cells; assay type: cell-based, human; conditions: cells transfected with siRNA; compared to untreated cells; no Fn
Method: as §2, §3

HCT116 cells [3] = test: Cell proliferation assay, HCT116 cells; assay type: cell-based, human; conditions: cells transfected with siRNA; compared to untreated cells; no Fn
Method: as §2
Annexin antibodies utilized in these experiments included: Annexin A1 (Thermo Fisher Scientific, cat #71-3400); Annexin A2 (Thermo Fisher Scientific, cat # PA5-27566); Annexin V (Thermo Fisher Scientific, cat # PA5-27872); Annexin A6 (Thermo Fisher Scientific, cat. #720161); and Annexin All (Thermo Fisher Scientific, cat # PA5-68093).
Cells were seeded in 24 well plates at 5×10^4 cells per well. […] Cell numbers were counted at indicated time points using a hemocytometer as previously described (Rubinstein et al. 2013). […]

AA/C1/SB/10C (10C) cells = test: Cell proliferation assay, 10C cells; assay type: cell-based, human; conditions: cells transfected with siRNA; compared to untreated cells; no Fn
Method: as §2, §3

[4] = test system: β-catenin in HCT116 cells; test: Flow cytometry of β-catenin expression after F. nucleatum incubation, HCT116 cells; assay type: cell-based, human; conditions: HCT116 cells transfected with siRNA, then Fn 12230 MOI approximately 20:1
Method: (§4) FIG. 3G are graphs of the results of flow cytometry analysis of β-catenin expression in 10C, HCT 116, and DLD1 cells following transfection with control siRNA (clear bars) or ANXA1-specific siRNA (solid bars) and subsequent incubation with F. nucleatum 12230 at MOI of approximately 20:1 for indicated time periods. The geometric means of cells treated with control siRNA at time 0 was designated as 1. Data are mean values±SD. *** p<0.001. The experiment was performed in duplicates or triplicates and repeated 1-3 times. **p<0.01, ***p<0.001 (two-way ANOVA).
(§5) Approximately a total of 2×10^5 cells were incubated with Fn or purified FadA in 35 mm dish at 37° C. for indicated time periods. After washing with PBS, the cells were incubated with enzyme-free cell dissociation buffer (Thermo Fisher Scientific) for 5 min at 37° C. followed by addition of 1 ml DMEM. The cells were collected and centrifuged at 500 g for 3 minutes. The cell pellet was fixed with 75% cold ethanol and kept at −20° C. The pellet was centrifuged again at 2500 g for 10 minutes and washed with phosphate citrate buffer (200 mM Na2HPO4, 100 mM citric acid, pH 7.4), followed by blocking with PBS containing 2% skim milk at room temperature for 1 hour. […] After washing the cells with PBS, the flow cytometric data were acquired by a BD LSR II flow cytometer and analyzed using Flow Jo software (Tree Star, San Carlos, Calif.).

β-catenin in 10C cells [5] = test: Immuno-staining of β-catenin nuclear translocation, 10C cells; assay type: cell-based, human; conditions: 10C cells transfected with siRNA, then Fn 12230 MOI about 100:1 for 2 hours
Method: The images were captured with confocal microscope at 800× magnification. −, no bacteria added. Note the increased expression of β-catenin and its nucleus translocation in response to Fn in control siRNA-treated cells, compared to ANXA1 siRNA-treated cells.
as §1, with “solution.” for “solution. After washing three times with PBS containing 0.3% Triton X-100, the cells were incubated with Cy3-conjugated donkey anti-goat IgG (1:1000 dilution, Jackson ImmunoResearch, West Grove, Pa.) and Alexa Fluor®680-conjugated donkey anti-rabbit IgG (1:1000 dilution, Invitrogen), washed, and covered in mounting medium containing DAPI (Vector Laboratories, CA, USA).”

β-catenin in 10C cells [6] = test: Flow cytometry of β-catenin expression after F. nucleatum incubation, 10C cells; assay type: cell-based, human; conditions: 10C cells transfected with siRNA, then Fn 12230 MOI approximately 20:1
Method: as §4, §5

SW480 cells = test: Cell proliferation assay, SW480 cells; assay type: cell-based, human; conditions: cells transfected with siRNA; compared to untreated cells; no Fn
Method: as §2, §3

β-catenin in DLD1 cells [7] = test: Flow cytometry of β-catenin expression after F. nucleatum incubation, DLD1 cells; assay type: cell-based, human; conditions: DLD1 cells transfected with siRNA, then Fn 12230 MOI approximately 20:1
Method: as §4, §5

[8] = test system: F. nucleatum 12230 attachment and invasion to 10C cells; test: Cell culture attachment and invasion assay of F. nucleatum 12230 to 10C cells; assay type: cell-based, human; conditions: 10C transfected with siRNA
Method: Fn attachment and invasion to the untreated SB cells were designated as 100%, respectively; all other values were expressed as relative to those obtained with untreated SB. Data are mean values±SEM. *p<0.05, ** p<0.01 and *** p<0.001 (one-way ANOVA).
Data are mean values±SD. The experiment was performed in triplicates and repeated twice. *p<0.05 (student's t-test).
The assay was performed as previously described (Han et al. 2000). Briefly, host cells were seeded in 24 well plates and grown until 80% confluency. Bacteria were added at an MOI 50:1 and incubated for 1 hour at 37° C. in 5% CO2. Following washes with PBS and lysis with water for 20 minutes, serial dilutions of the lysates were plated onto blood agar plates to enumerate the viable bacterial counts. For the invasion assay, bacteria were incubated with the host cells for 3 hours followed by treatment with 300 μg/ml gentamicin and 200 μg/ml metronidazole for 1 hour at 37° C. Following washes with PBS, the cells were lysed with water and intracellular bacterial counts were determined as described above. The levels of attachment and invasion were expressed as the percentage of bacteria recovered following cell lysis relative to the total number of bacteria initially added. Each experiment was performed in triplicate and repeated at least three times.

ANXA1-specific siRNA: Invitrogen stealth siRNA cat # ANXA1HSS100502, sequence UAACCAUUAUGGCCUUAUGCAAGGC (SEQ ID NO: 1) (UAACCAUUAUGGCCUUAUGCAAGGC; commercial Invitrogen Stealth siRNA, chemistry not given here)
nucleus translocation of β-catenin (β-catenin in DLD1 cells [1]): abolished
growth of non-tumorigenic SB cells (AA/C1/SB (SB) cells): without affecting
growth of RKO cells (RKO cells): without affecting
growth of HT29 cells (HT29 cells): inhibited the growth
xenografted tumor growth (tumor volume) (HCT116 cells [2]): significantly attenuated tumor growth
growth of DLD1 cells (DLD1 cells): inhibited the growth
growth of HCT116 cells (HCT116 cells [3]): inhibited the growth
growth of 10C cells (AA/C1/SB/10C (10C) cells): inhibited the growth
F. nucleatum-mediated activation of β-catenin expression [4]: abolished
nuclear translocation of β-catenin (β-catenin in 10C cells [5]): abolished; also recorded: inhibited
F. nucleatum-mediated activation of β-catenin expression (β-catenin in 10C cells [6]): abolished
growth of SW480 cells (SW480 cells): inhibited the growth
F. nucleatum-mediated activation of β-catenin expression (β-catenin in DLD1 cells [7]): abolished
Fn binding (attachment) to 10C cells ([8]; Fn 12230 MOI 50:1, 1 hour): effectively reduced
Fn invasion of 10C cells ([8]; Fn 12230 MOI 50:1, 3 hours): effectively reduced

From patent publication US20210292400A1, “METHODS FOR TREATING, PREVENTING AND DETECTING THE PROGNOSIS OF COLORECTAL CANCER” (priority 2018, published 2021)
